Measurements as given in patent US11292796B2 (SIGNAL PHARMACEUTICALS, LLC, priority 2008, dated 2022).

Target: T1, mTOR (Homo sapiens, UniProt P42345)
T1 construct: purchased Invitrogen PR8683A
Test: mTOR HTR-FRET assay
Type: biochemical
Settings: read-out: Act. Level (IC50 in mTor HTR-FRET assay)
Description: The following is an example of an assay that can be used to determine the mTOR inhibitory activity of a test compound. Heteroaryl Compounds were dissolved in DMSO and prepared as 10 mM stocks and diluted appropriately for the experiments. Reagents were prepared as follows:
“Simple TOR buffer” (used to dilute high glycerol TOR fraction): 10 mM Tris pH 7.4, 100 mM NaCl, 0.1% Tween-20, 1 mM DTT. Invitrogen mTOR (cat #PR8683A) was diluted in this buffer to an assay concentration of 0.200 μg/mL.
To 20 μL of the Simple mTor buffer is added 0.5 μL of test compound in DMSO. To initiate the reaction 5 μL of ATP/Substrate solution was added to 20 μL of the Simple TOR buffer solution (control) and to the compound solution prepared above.

T1 sequence (P42345 1360-2549 limits assumed): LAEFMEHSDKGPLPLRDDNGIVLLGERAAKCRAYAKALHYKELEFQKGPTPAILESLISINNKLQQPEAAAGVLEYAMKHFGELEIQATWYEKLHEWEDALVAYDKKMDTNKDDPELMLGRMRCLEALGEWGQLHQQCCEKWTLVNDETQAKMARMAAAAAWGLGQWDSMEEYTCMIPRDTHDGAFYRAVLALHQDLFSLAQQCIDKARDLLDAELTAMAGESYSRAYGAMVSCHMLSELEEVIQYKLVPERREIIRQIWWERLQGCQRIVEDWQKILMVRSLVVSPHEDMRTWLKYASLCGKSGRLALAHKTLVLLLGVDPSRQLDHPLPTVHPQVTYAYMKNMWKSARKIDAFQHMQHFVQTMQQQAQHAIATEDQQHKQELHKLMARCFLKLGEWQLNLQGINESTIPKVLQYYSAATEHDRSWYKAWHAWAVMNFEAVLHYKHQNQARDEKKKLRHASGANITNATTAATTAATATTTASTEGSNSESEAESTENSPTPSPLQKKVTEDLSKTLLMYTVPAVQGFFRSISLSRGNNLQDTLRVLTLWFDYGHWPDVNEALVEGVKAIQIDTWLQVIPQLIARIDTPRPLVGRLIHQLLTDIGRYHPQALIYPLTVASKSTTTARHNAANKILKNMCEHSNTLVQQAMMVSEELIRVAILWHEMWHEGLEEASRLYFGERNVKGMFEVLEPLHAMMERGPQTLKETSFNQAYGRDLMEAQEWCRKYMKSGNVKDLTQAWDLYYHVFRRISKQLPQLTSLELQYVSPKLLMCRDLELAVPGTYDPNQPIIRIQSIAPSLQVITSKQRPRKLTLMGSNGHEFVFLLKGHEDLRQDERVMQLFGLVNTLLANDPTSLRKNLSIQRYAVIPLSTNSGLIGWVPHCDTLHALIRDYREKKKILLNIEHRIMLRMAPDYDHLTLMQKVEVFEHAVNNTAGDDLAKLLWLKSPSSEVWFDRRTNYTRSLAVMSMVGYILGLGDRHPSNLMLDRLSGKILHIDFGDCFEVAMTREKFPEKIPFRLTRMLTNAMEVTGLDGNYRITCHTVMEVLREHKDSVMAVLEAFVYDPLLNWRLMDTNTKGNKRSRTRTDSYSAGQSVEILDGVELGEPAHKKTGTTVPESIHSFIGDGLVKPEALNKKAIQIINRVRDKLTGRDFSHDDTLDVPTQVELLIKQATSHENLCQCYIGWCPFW

SMILES	IC50 [nM]
CNc1nc2c(C)cc(-c3cnc4c(n3)N(CCC3CCOCC3)CC(=O)N4)cc2[nH]1 [Example 139, 6-(4-methyl-2-(methylamino)-1H-benzo[d]imidazol-6-yl)-4-(2-(tetrahydro-2H-pyran-4-yl)ethyl)-3,4-dihydropyrazino[2,3-b]pyrazin-2(1H)-one]	0.005 to 250
CC(C)(O)c1ccc(-c2cnc3c(n2)N(C[C@@H]2CCCO2)CC(=O)N3)cn1 [Example 115, (S)-6-(6-(2-hydroxypropan-2-yl)pyridin-3-yl)-4-((tetrahydrofuran-2-yl)methyl)-3,4-dihydropyrazino[2,3-b]pyrazin-2(1H)-one]	1000 to 10000
O=C1CN(C[C@@H]2CCCO2)c2nc(-c3ccc(-c4nnc[nH]4)cc3)cnc2N1 [Example 68, (S)-6-(4-(4H-1,2,4-triazol-3-yl)phenyl)-4-((tetrahydrofuran-2-yl)methyl)-3,4-dihydropyrazino[2,3-b]pyrazin-2(1H)-one]	0.005 to 250
CO[C@H]1CC[C@H](N2C(=O)CNc3ncc(-c4ccc(C(C)(C)O)[n+]([O-])c4)nc32)CC1 [Example 198, 2-(2-hydroxypropan-2-yl)-5-(8-(trans-4-methoxycyclohexyl)-7-oxo-5,6,7,8-tetrahydropyrazino[2,3-b]pyrazin-2-yl)pyridine 1-oxide]	1000 to 10000
CC(C)(O)c1ccc(-c2cnc3c(n2)N(Cc2cccc(C(F)(F)F)c2)C(=O)CN3)cn1 [Example 258, 7-(6-(2-hydroxypropan-2-yl)pyridin-3-yl)-1-(3-(trifluoromethyl)benzyl)-3,4-dihydropyrazino[2,3-b]pyrazin-2(1H)-one]	0.005 to 250
CO[C@H]1CC[C@@H](CN2CC(=O)Nc3ncc(-c4ccc(-c5nnc[nH]5)nc4C)nc32)C1 [Example 46, 4-(((1R,3S)-3-methoxycyclopentyl)methyl)-6-(2-methyl-6-(4H-1,2,4-triazol-3-yl)pyridin-3-yl)-3,4-dihydropyrazino[2,3-b]pyrazin-2(1H)-one]	0.005 to 250
Cc1c(-c2cnc3c(n2)N(CCC2CCOCC2)C(=O)CN3)ccc(-c2nc[nH]n2)c1F [Example 248, 7-(3-fluoro-2-methyl-4-(1H-1,2,4-triazol-3-yl)phenyl)-1-(2-(tetrahydro-2H-pyran-4-yl)ethyl)-3,4-dihydropyrazino[2,3-b]pyrazin-2(1H)-one]	0.005 to 250
CO[C@H]1CC[C@@H](N2C(=O)CNc3ncc(-c4ccc(-c5nnc[nH]5)nc4C)nc32)C1 [Example 228, 1-((1R,3S)-3-methoxycyclopentyl)-7-(2-methyl-6-(4H-1,2,4-triazol-3-yl)pyridin-3-yl)-3,4-dihydropyrazino[2,3-b]pyrazin-2(1H)-one]	0.005 to 250
Cc1cc(C(C)(C)O)ncc1-c1cnc2c(n1)N(CC1CCOCC1)CC(=O)N2 [Example 78, 6-(6-(2-hydroxypropan-2-yl)-4-methylpyridin-3-yl)-4-((tetrahydro-2H-pyran-4-yl)methyl)-3,4-dihydropyrazino[2,3-b]pyrazin-2(1H)-one]	0.005 to 250
O=C1CNc2ncc(-c3cn[nH]c3)nc2N1CCC1CCOCC1 [Example 201, 7-(1H-pyrazol-4-yl)-1-(2-(tetrahydro-2H-pyran-4-yl)ethyl)-3,4-dihydropyrazino[2,3-b]pyrazin-2(1H)-one]	1000 to 10000
COCCN1CC(=O)Nc2ncc(-c3ccc(-c4nnc[nH]4)cc3)nc21 [Example 144, 6-(4-(4H-1,2,4-triazol-3-yl)phenyl)-4-(2-methoxyethyl)-3,4-dihydropyrazino[2,3-b]pyrazin-2(1H)-one]	0.005 to 250
CC(C)(O)c1ccc(-c2cnc3c(n2)N([C@@H]2CCOC2)CC(=O)N3)cn1 [Example 129, (R)-6-(6-(2-hydroxypropan-2-yl)pyridin-3-yl)-4-(tetrahydrofuran-3-yl)-3,4-dihydropyrazino[2,3-b]pyrazin-2(1H)-one]	500 to 1000
CO[C@H]1CC[C@H](N2C(=O)CNc3ncc(-c4cnc(-c5nc[nH]n5)cc4C)nc32)CC1 [Example 202, 1-(trans-4-methoxycyclohexyl)-7-(4-methyl-6-(1H-1,2,4-triazol-3-yl)pyridin-3-yl)-3,4-dihydropyrazino[2,3-b]pyrazin-2(1H)-one]	0.005 to 250
CC(C)(O)c1ccc(-c2cnc3c(n2)N(CC2CCCC2)CC(=O)N3)cn1 [Example 104, 4-(cyclopentylmethyl)-6-(6-(2-hydroxypropan-2-yl)pyridin-3-yl)-3,4-dihydropyrazino[2,3-b]pyrazin-2(1H)-one]	0.005 to 250
COCCN1CC(=O)Nc2ncc(-c3cnc(C(N)=O)cc3C)nc21 [Example 32, 5-(8-(2-methoxyethyl)-6-oxo-5,6,7,8-tetrahydropyrazino[2,3-b]pyrazin-2-yl)-4-methylpicolinamide]	0.005 to 250
O=C1CNc2ncc(-c3ccc4cc[nH]c4c3)nc2N1CCC1CCOCC1 [Example 232, 7-(1H-indol-6-yl)-1-(2-(tetrahydro-2H-pyran-4-yl)ethyl)-3,4-dihydropyrazino[2,3-b]pyrazin-2(1H)-one]	250 to 500

SMILES	IC50 [nM]
COCCCN1C(=O)CNc2ncc(-c3ccc(C(C)(C)O)nc3)nc21 [Example 259, 7-(6-(2-hydroxypropan-2-yl)pyridin-3-yl)-1-(3-methoxypropyl)-3,4-dihydropyrazino[2,3-b]pyrazin-2(1H)-one]	0.005 to 250
CO[C@H]1CC[C@H](N2C(=O)CNc3ncc(-c4cc(F)c(-c5nc[nH]n5)cc4C)nc32)CC1 [Example 173, 7-(5-fluoro-2-methyl-4-(1H-1,2,4-triazol-3-yl)phenyl)-1-(trans-4-methoxycyclohexyl)-3,4-dihydropyrazino[2,3-b]pyrazin-2(1H)-one]	0.005 to 250
O=C1CNc2ncc(-c3cnc4[nH]ccc4c3)nc2N1CCC1CCOCC1 [Example 224, 7-(1H-pyrrolo[2,3-b]pyridin-5-yl)-1-(2-(tetrahydro-2H-pyran-4-yl)ethyl)-3,4-dihydropyrazino[2,3-b]pyrazin-2(1H)-one]	0.005 to 250
Cc1cc(-c2nnc[nH]2)ccc1-c1cnc2c(n1)NC1(CC1)C(=O)N2 [Example 66, 7′-(2-methyl-4-(4H-1,2,4-triazol-3-yl)phenyl)-1′H-spiro[cyclopropane-1,2′-pyrazino[2,3-b]pyrazin]-3′(4′H)-one]	0.005 to 250
Cc1cc(-c2nc[nH]n2)c(F)cc1-c1cnc2c(n1)N(C1CCOCC1)C(=O)CN2 [Example 166, 7-(5-fluoro-2-methyl-4-(1H-1,2,4-triazol-3-yl)phenyl)-1-(tetrahydro-2H-pyran-4-yl)-3,4-dihydropyrazino[2,3-b]pyrazin-2(1H)-one]	0.005 to 250
CCN1CC(=O)Nc2ncc(-c3cc(F)c(-c4nc[nH]n4)cc3C)nc21 [Example 26, 4-ethyl-6-(5-fluoro-2-methyl-4-(1H-1,2,4-triazol-3-yl)phenyl)-3,4-dihydropyrazino[2,3-b]pyrazin-2(1H)-one]	0.005 to 250
CCN1C(=O)CNc2ncc(-c3cc(F)c(-c4nc[nH]n4)cc3C)nc21 [Example 177, 1-ethyl-7-(5-fluoro-2-methyl-4-(1H-1,2,4-triazol-3-yl)phenyl)-3,4-dihydropyrazino[2,3-b]pyrazin-2(1H)-one]	0.005 to 250
CC(C)(O)c1ccc(-c2cnc3c(n2)N2CCOCC2C(=O)N3)cn1 (centres unmarked) [Example 133, 9-[6-(1-hydroxy-isopropyl)-3-pyridyl]-6,11,4a-trihydromorpholino[4,3-e]pyrazino[2,3-b]pyrazin-5-one]	500 to 1000
CO[C@H]1CC[C@@H](CN2C(=O)CNc3ncc(-c4cnc(C(N)=O)cc4C)nc32)CC1 [Example 200, 5-(8-((cis-4-methoxycyclohexyl)methyl)-7-oxo-5,6,7,8-tetrahydropyrazino[2,3-b]pyrazin-2-yl)-4-methylpicolinamide]	1000 to 10000
Cc1cc(-c2nc[nH]n2)c(F)cc1-c1cnc2c(n1)N(C[C@H]1CC[C@@H](O)CC1)C(=O)CN2 [Example 165, 7-(5-fluoro-2-methyl-4-(1H-1,2,4-triazol-3-yl)phenyl)-1-((cis-4-hydroxycyclohexyl)methyl)-3,4-dihydropyrazino[2,3-b]pyrazin-2(1H)-one]	0.005 to 250
CC(C)N1C(=O)CNc2ncc(-c3ccc(-c4nc[nH]n4)nc3)nc21 [Example 172, 7-(6-(1H-1,2,4-triazol-3-yl)pyridin-3-yl)-1-isopropyl-3,4-dihydropyrazino[2,3-b]pyrazin-2(1H)-one]	0.005 to 250
Cc1cc(-c2nc[nH]n2)c(F)cc1-c1cnc2c(n1)N([C@H]1CC[C@@H](O)CC1)C(=O)CN2 [Example 161, 7-(5-fluoro-2-methyl-4-(1H-1,2,4-triazol-3-yl)phenyl)-1-(cis-4-hydroxycyclohexyl)-3,4-dihydropyrazino[2,3-b]pyrazin-2(1H)-one]	0.005 to 250
COCCN1C(=O)CNc2ncc(-c3ccc(-c4nnc[nH]4)c(F)c3)nc21 [Example 242, 7-(3-fluoro-4-(4H-1,2,4-triazol-3-yl)phenyl)-1-(2-methoxyethyl)-3,4-dihydropyrazino[2,3-b]pyrazin-2(1H)-one]	0.005 to 250
O=C1CN(CCC2CCOCC2)c2nc(-c3ccc4cn[nH]c4c3)cnc2N1 [Example 37, 6-(1H-indazol-6-yl)-4-(2-(tetrahydro-2H-pyran-4-yl)ethyl)-3,4-dihydropyrazino[2,3-b]pyrazin-2(1H)-one]	1000 to 10000
Cc1cc(-c2nc[nH]n2)ncc1-c1cnc2c(n1)N(C(C)C)C(=O)CN2 [Example 179, 1-isopropyl-7-(4-methyl-6-(1H-1,2,4-triazol-3-yl)pyridin-3-yl)-3,4-dihydropyrazino[2,3-b]pyrazin-2(1H)-one]	0.005 to 250
CO[C@H]1CC[C@H](CN2C(=O)CNc3ncc(-c4ccc(-c5nc[nH]n5)nc4)nc32)CC1 [Example 158, 7-(6-(1H-1,2,4-triazol-3-yl)pyridin-3-yl)-1-((trans-4-methoxycyclohexyl)methyl)-3,4-dihydropyrazino[2,3-b]pyrazin-2(1H)-one]	0.005 to 250
